Data from patent publication US9527832B2, “Substituted condensed pyrimidine compounds” (GRÜNENTHAL GMBH, priority 2013, dated 2016).

Target: T1, human PDE4B1 (Homo sapiens, UniProt Q07343)
T1 construct: host or cells: Sf9 cells
Experiment: cAMP HTRF assay to determine the activity of hPDE4B1
Format: biochemical
Settings: for IC50: dose response measurements with eight concentrations, reported as ranges, read-out: IC50
Experimental: cAMP HTRF® Assay to Determine the Activity of hPDE4B1
The inhibiting effect of the compounds on the enzyme activity of human PDE4B1 was measured by the quantification of 5′-adenosine monophosphate (5′-AMP), which is formed from 3′,5′-cyclic adenosine monophosphate (cAMP). Human recombinant enzyme, expressed in Sf9 cells, and the HTRF (homogeneous time-resolved fluorescence) detection method were used in the assay.
The test compound or water (control) was mixed with the human recombinant PDE4B1 enzyme (4.8 U) in a buffer consisting of 44.4 mM tris-HCl, 5.28 mM MgCl2, 2.64 mM DTT and 0.044% Tween 20 (pH 7.8). After adding the cAMP enzyme substrate (final concentration 40 nM), the mixture was incubated for 30 minutes at room temperature. Then a fluorescence acceptor (Dye2 marked with cAMP), a fluorescence donor (anti-cAMP antibody marked with a europium cryptate) and the non-specific phosphodiesterase inhibitor IBMX (3-isobutyl-1-methylxanthine; final concentration 1 mM) were added. After 60 minutes the fluorescence transfer, which correlates with the amount of remaining cAMP, was measured with a microplate reader (Rubystar, BMG) at λex=337 nm, λem=620 nm and λem=665 nm. The enzyme activity was calculated from the quotient formed from the measured signal at 665 nm and that at 620 nm. The result was expressed as the percentage inhibition of enzyme activity of the control (without PDE4 inhibitor). The enzyme was omitted for measurement of the basal control.
IC50 values (IC50=concentration causing a half-maximal inhibition of control specific activity) were derived from dose response measurements with eight different concentrations (n=2; N=1-2).
Literature: N. Saldou et al., Comparison of recombinant human PDE4 isoforms: interaction with substrate and inhibitors, Cell. Signal. Vol. 10, No. 6, 427-440, 1998

[1] = Percentage inhibition of PDE4B at 1 μM test concentration

T1 sequence (Q07343 whole entry): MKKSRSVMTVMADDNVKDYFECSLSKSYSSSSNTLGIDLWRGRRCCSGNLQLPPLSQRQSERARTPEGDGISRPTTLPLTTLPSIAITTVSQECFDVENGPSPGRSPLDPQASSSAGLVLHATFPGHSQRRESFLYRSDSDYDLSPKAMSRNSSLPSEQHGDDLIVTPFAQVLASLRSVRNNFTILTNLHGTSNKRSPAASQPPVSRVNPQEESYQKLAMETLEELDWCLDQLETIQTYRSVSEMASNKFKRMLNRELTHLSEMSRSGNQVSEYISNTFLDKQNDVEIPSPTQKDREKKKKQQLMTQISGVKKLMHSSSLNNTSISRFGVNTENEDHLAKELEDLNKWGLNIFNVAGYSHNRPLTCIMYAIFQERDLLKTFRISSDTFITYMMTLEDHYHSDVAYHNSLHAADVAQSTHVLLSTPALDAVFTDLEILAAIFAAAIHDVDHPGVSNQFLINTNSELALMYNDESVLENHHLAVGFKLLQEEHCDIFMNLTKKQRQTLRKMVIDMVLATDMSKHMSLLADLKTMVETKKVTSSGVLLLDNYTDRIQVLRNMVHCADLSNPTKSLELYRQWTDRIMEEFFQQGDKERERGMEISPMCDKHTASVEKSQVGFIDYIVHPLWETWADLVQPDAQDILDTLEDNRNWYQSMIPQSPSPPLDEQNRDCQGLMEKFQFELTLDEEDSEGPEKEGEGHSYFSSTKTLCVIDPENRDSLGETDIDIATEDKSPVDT

inhibition at 1 µM [1]	IC50	Inhibition at 1 μM test concentration [%] (Percentage inhibition of PDE4B at 1 μM test concentration, 1 µM)	SMILES
100%	< 100 nM	–	CN(C)C(=O)COc1ccc2c(c1)N(c1nc(-c3ccccc3F)nc3c1C[S+]([O-])C3)CC2 (stereo not drawn) [2-100, 2-[[1-[2-(2-Fluorophenyl)-6-oxo-5,7-dihydro-thieno[3,4-d]pyrimidin-4-yl]-2,3-dihydro-1H-indol-6-yl]oxy]-N,N-dimethyl-acetamide]
120%	< 100 nM	–	CN(C)C(=O)COc1ccc2c(c1)N(c1nc(-c3cccc(C(F)(F)F)c3)nc3c1C[S+]([O-])C3)CC2 (stereo not drawn) [2-101, N,N-Dimethyl-2-[[1-[6-oxo-2-[3-(trifluoromethyl)phenyl]-5,7-dihydro-thieno[3,4-d]pyrimidin-4-yl]-2,3-dihydro-1H-indol-6-yl]oxy]-acetamide]
110%	< 100 nM	–	CN(C)C(=O)COc1ccc2c(c1)N(c1nc(-c3ccoc3)nc3c1C[S+]([O-])C3)CC2 (stereo not drawn) [2-102, 2-[[1-[2-(Furan-3-yl)-6-oxo-5,7-dihydro-thieno[3,4-d]pyrimidin-4-yl]-2,3-dihydro-1H-indol-6-yl]oxy]-N,N-dimethyl-acetamide]
91%	100 to 1000 nM	–	CN(C)C(=O)COc1ccc2c(c1)N(c1nc(-c3ccccc3C#N)nc3c1C[S+]([O-])C3)CC2 (stereo not drawn) [2-103, 2-[[1-[2-(2-Cyano-phenyl)-6-oxo-5,7-dihydro-thieno[3,4-d]pyrimidin-4-yl]-2,3-dihydro-1H-indol-6-yl]oxy]-N,N-dimethyl-acetamide]
85%	100 to 1000 nM	–	CN(C)C(=O)COc1ccc2c(c1)N(c1nc(-c3ccccc3NS(C)(=O)=O)nc3c1C[S+]([O-])C3)CC2 (stereo not drawn) [2-104, 2-[[1-[2-[2-(Methanesulfonamido)-phenyl]-6-oxo-5,7-dihydro-thieno[3,4-d]pyrimidin-4-yl]-2,3-dihydro-1H-indol-6-yl]oxy]-N,N-dimethyl-acetamide]
77%	100 to 1000 nM	–	COc1ncccc1-c1nc2c(c(N3CCc4ccc(OCC(=O)N(C)C)cc43)n1)C[S+]([O-])C2 (stereo not drawn) [2-105, 2-[[1-[2-(2-Methoxy-pyridin-3-yl)-6-oxo-5,7-dihydro-thieno[3,4-d]pyrimidin-4-yl]-2,3-dihydro-1H-indol-6-yl]oxy]-N,N-dimethyl-acetamide]
104%	< 100 nM	–	CN(C)C(=O)COc1ccc2c(c1)N(c1nc(-c3ccc(S(C)(=O)=O)cc3)nc3c1C[S+]([O-])C3)CC2 (stereo not drawn) [2-106, N,N-Dimethyl-2-[[1-[2-(4-methylsulfonyl-phenyl)-6-oxo-5,7-dihydro-thieno[3,4-d]pyrimidin-4-yl]-2,3-dihydro-1H-indol-6-yl]oxy]-acetamide]
113%	< 100 nM	–	CN(C)C(=O)COc1ccc2c(c1)N(c1nc(-c3cccc(S(C)(=O)=O)c3)nc3c1C[S+]([O-])C3)CC2 (stereo not drawn) [2-107, N,N-Dimethyl-2-[[1-[2-(3-methylsulfonyl-phenyl)-6-oxo-5,7-dihydro-thieno[3,4-d]pyrimidin-4-yl]-2,3-dihydro-1H-indol-6-yl]oxy]-acetamide]
62%	–	–	CN(C)C(=O)COc1ccc2c(c1)N(c1nc(-c3cccc(C(N)=O)c3)nc3c1C[S+]([O-])C3)CC2 (stereo not drawn) [2-108, 3-[4-[6-[(Dimethyl-carbamoyl)-methoxy]-2,3-dihydro-1H-indol-1-yl]-6-oxo-5,7-dihydro-thieno[3,4-d]pyrimidin-2-yl]-benzamide]
98%	< 100 nM	–	CC(=O)Nc1ccc(-c2nc3c(c(N4CCc5ccc(OCC(=O)N(C)C)cc54)n2)C[S+]([O-])C3)cc1 (stereo not drawn) [2-109, 2-[[1-[2-(4-Acetylamino-phenyl)-6-oxo-5,7-dihydro-thieno[3,4-d]pyrimidin-4-yl]-2,3-dihydro-1H-indol-6-yl]oxy]-N,N-dimethyl-acetamide]
119%	< 100 nM	–	CCOc1ccc(-c2nc3c(c(N4CCc5ccc(OCC(=O)N(C)C)cc54)n2)C[S+]([O-])C3)cc1 (stereo not drawn) [2-110, 2-[[1-[2-(4-Ethoxyphenyl)-6-oxo-5,7-dihydro-thieno[3,4-d]pyrimidin-4-yl]-2,3-dihydro-1H-indol-6-yl]oxy]-N,N-dimethyl-acetamide]
72%	100 to 1000 nM	–	COc1cc(-c2nc3c(c(N4CCc5ccc(OCC(=O)N(C)C)cc54)n2)C[S+]([O-])C3)ccc1Cl (stereo not drawn) [2-111, 2-[[1-[2-(4-Chloro-3-methoxy-phenyl)-6-oxo-5,7-dihydro-thieno[3,4-d]pyrimidin-4-yl]-2,3-dihydro-1H-indol-6-yl]oxy]-N,N-dimethyl-acetamide]
64%	100 to 1000 nM	–	COc1cc(F)ccc1-c1nc2c(c(N3CCc4ccc(OCC(=O)N(C)C)cc43)n1)C[S+]([O-])C2 (stereo not drawn) [2-112, 2-[[1-[2-(4-Fluoro-2-methoxy-phenyl)-6-oxo-5,7-dihydro-thieno[3,4-d]pyrimidin-4-yl]-2,3-dihydro-1H-indol-6-yl]oxy]-N,N-dimethyl-acetamide]
99%	< 100 nM	–	CN(C)C(=O)COc1ccc2c(c1)N(c1nc(-c3cc(F)ccc3F)nc3c1C[S+]([O-])C3)CC2 (stereo not drawn) [2-113, 2-[[1-[2-(2,5-Difluoro-phenyl)-6-oxo-5,7-dihydro-thieno[3,4-d]pyrimidin-4-yl]-2,3-dihydro-1H-indol-6-yl]oxy]-N,N-dimethyl-acetamide]
102%	–	101%	CN(C)C(=O)COc1ccc2c(c1)N(c1nc(-c3ccnc(F)c3)nc3c1C[S+]([O-])C3)CC2 (stereo not drawn) [2-138, 2-((1-(2-(2-Fluoropyridin-4-yl)-6-oxido-5,7-dihydrothieno[3,4-d]pyrimidin-4-yl)indolin-6-yl)oxy)-N,N-dimethylacetamide]
92%	100 to 1000 nM	–	CN(C)C(=O)COc1ccc2c(c1)N(c1nc(-c3cncnc3)nc3c1C[S+]([O-])C3)CC2 (stereo not drawn) [2-144, N,N-Dimethyl-2-[[1-(6-oxo-2-pyrimidin-5-yl-5,7-dihydro-thieno[3,4-d]pyrimidin-4-yl)-2,3-dihydro-1H-indol-6-yl]oxy]-acetamide]
95%	< 100 nM	–	CN(C)C(=O)COc1ccc2c(c1)N(c1nc(-c3ccc4c(c3)OCO4)nc3c1C[S+]([O-])C3)CC2 (stereo not drawn) [2-145, 2-[[1-[2-(1,3-Benzodioxo1-5-yl)-6-oxo-5,7-dihydro-thieno[3,4-d]pyrimidin-4-yl]-2,3-dihydro-1H-indol-6-yl]oxy]-N,N-dimethyl-acetamide]
104%	< 100 nM	–	CN(C)C(=O)COc1ccc2c(c1)N(c1nc(-c3cnc4ccccc4c3)nc3c1C[S+]([O-])C3)CC2 (stereo not drawn) [2-146, N,N-Dimethyl-2-[[1-(6-oxo-2-quinolin-3-yl-5,7-dihydro-thieno[3,4-d]pyrimidin-4-yl)-2,3-dihydro-1H-indol-6-yl]oxy]-acetamide]
86%	< 100 nM	–	CN(C)C(=O)COc1ccc2c(c1)N(c1nc(-c3ccc4cc[nH]c4c3)nc3c1C[S+]([O-])C3)CC2 (stereo not drawn) [2-147, 2-[[1-[2-(1H-Indol-6-yl)-6-oxo-5,7-dihydro-thieno[3,4-d]pyrimidin-4-yl]-2,3-dihydro-1H-indol-6-yl]oxy]-N,N-dimethyl-acetamide]
100%	< 100 nM	–	CN(C)C(=O)COc1ccc2c(c1)N(c1nc(-c3ccc4cnccc4c3)nc3c1C[S+]([O-])C3)CC2 (stereo not drawn) [2-148, 2-[[1-(2-Isoquinolin-6-yl-6-oxo-5,7-dihydro-thieno[3,4-d]pyrimidin-4-yl)-2,-dihydro-1H-indol-6-yl]oxy]-N,N-dimethyl-acetamide]
